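Following 48 hours of exposure in 96-well plates, responses at five concentrations were used to interpolate endpoints linearly. GI50 marks 50% less growth.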 Active and inactive are the calls of the source. Rule as the data show it: active = GI50 up to about 1.1 µM and inactive = higher.
What was measured:
Assay in all cases: NCI-60 cell line screen, 48 h
KM-20L2 = system: KM-20L2
HCC 2998 = system: HCC 2998
786-0 = system: 786-0
NCI-H23 = system: NCI-H23
SK-MEL-2 = system: SK-MEL-2
RPMI-8226 = system: RPMI-8226
HT-29 = system: HT-29
SW-620 = system: SW-620
NCI-H226 = system: NCI-H226
DMS-114 = system: DMS-114
XF498 = system: XF498
KM12 = system: KM12
OVCAR-4 = system: OVCAR-4
Malme-3M = system: Malme-3M
U-251 = system: U-251
DLD-1 = system: DLD-1
UACC-257 = system: UACC-257
M19-MEL = system: M19-MEL
SR = system: SR
HOP-18 = system: HOP-18
SF-268 = system: SF-268
SK-MEL-5 = system: SK-MEL-5
K562 = system: K562
DMS-273 = system: DMS-273
TK-10 = system: TK-10
NCI-H460 = system: NCI-H460
IGROV-1 = system: IGROV-1
RXF 393 = system: RXF 393
HCT-116 = system: HCT-116
M14 = system: M14
OVCAR-8 = system: OVCAR-8
OVCAR-3 = system: OVCAR-3
SK-OV-3 = system: SK-OV-3
SNB-19 = system: SNB-19
OVCAR-5 = system: OVCAR-5
SF-539 = system: SF-539
LOX IMVI = system: LOX IMVI
MOLT-4 = system: MOLT-4
COLO 205 = system: COLO 205
SF-295 = system: SF-295
SNB-75 = system: SNB-75
ACHN = system: ACHN
NCI-H522 = system: NCI-H522
HOP-62 = system: HOP-62
SK-MEL-28 = system: SK-MEL-28
HCT-15 = system: HCT-15
A549 = system: A549
SN12C = system: SN12C
UACC-62 = system: UACC-62
LXFL 529 = system: LXFL 529
UO-31 = system: UO-31
HL-60 = system: HL-60
CCRF-CEM = system: CCRF-CEM
HOP-92 = system: HOP-92
EKVX = system: EKVX
RXF 631 = system: RXF 631

CC(C)=CC(C(O)c1ccccc1)S(=O)(=O)c1nccn1C (stereo unspecified)
GI50 (KM-20L2): > 100 µM (inactive) | GI50 (HCC 2998): > 100 µM (inactive) | GI50 (786-0): > 100 µM (inactive) | GI50 (NCI-H23): > 100 µM (inactive) | GI50 (SK-MEL-2): > 100 µM (inactive) | GI50 (RPMI-8226): > 100 µM (inactive) | GI50 (HT-29): > 100 µM (inactive) | GI50 (SW-620): > 100 µM (inactive) | GI50 (NCI-H226): > 100 µM (inactive) | GI50 (DMS-114): > 100 µM (inactive) | GI50 (XF498): > 100 µM (inactive) | GI50 (KM12): > 100 µM (inactive) | GI50 (OVCAR-4): > 100 µM (inactive) | GI50 (Malme-3M): > 100 µM (inactive) | GI50 (U-251): > 100 µM (inactive) | GI50 (DLD-1): > 100 µM (inactive) | GI50 (UACC-257): > 100 µM (inactive) | GI50 (M19-MEL): > 100 µM (inactive) | GI50 (SR): > 100 µM (inactive) | GI50 (HOP-18): > 100 µM (inactive) | GI50 (SF-268): > 100 µM (inactive) | GI50 (SK-MEL-5): > 100 µM (inactive) | GI50 (K562): > 100 µM (inactive) | GI50 (DMS-273): > 100 µM (inactive) | GI50 (TK-10): > 100 µM (inactive) | GI50 (NCI-H460): > 100 µM (inactive) | GI50 (IGROV-1): > 100 µM (inactive) | GI50 (RXF 393): > 100 µM (inactive) | GI50 (HCT-116): > 100 µM (inactive) | GI50 (M14): > 100 µM (inactive) | GI50 (OVCAR-8): > 100 µM (inactive) | GI50 (OVCAR-3): > 100 µM (inactive) | GI50 (SK-OV-3): > 100 µM (inactive) | GI50 (SNB-19): > 100 µM (inactive) | GI50 (OVCAR-5): > 100 µM (inactive) | GI50 (SF-539): > 100 µM (inactive) | GI50 (LOX IMVI): > 100 µM (inactive) | GI50 (MOLT-4): > 100 µM (inactive) | GI50 (COLO 205): > 100 µM (inactive) | GI50 (SF-295): > 100 µM (inactive) | GI50 (SNB-75): > 100 µM (inactive) | GI50 (ACHN): > 100 µM (inactive) | GI50 (NCI-H522): > 100 µM (inactive) | GI50 (HOP-62): > 100 µM (inactive) | GI50 (SK-MEL-28): > 100 µM (inactive) | GI50 (HCT-15): > 100 µM | GI50 (A549): > 100 µM (inactive) | GI50 (SN12C): > 100 µM (inactive) | GI50 (UACC-62): > 100 µM (inactive) | GI50 (LXFL 529): > 100 µM (inactive) | GI50 (UO-31): > 100 µM (inactive) | GI50 (HL-60): > 100 µM (inactive) | GI50 (CCRF-CEM): > 100 µM (inactive) | GI50 (HOP-92): > 100 µM (inactive) | GI50 (EKVX): > 100 µM (inactive) | GI50 (RXF 631): > 100 µM (inactive)
